The record followed here is patent publication US4604386A, “3-(alkynylalkyloxy) cephalosporins” (Eli Lilly and Company, priority 1984, dated 1986).

Series [1] has as its system Streptococcus group D X66. Briefly: standard agar dilution-method test (MIC). Format: cell-based. From the text: (§1) Antibiotic activity of selected compounds of Formual 1 is illustrated by the following in vitro and in vivo test data in Table I, the minimum inhibitory concentration (MIC) for representative compounds against a wide range of gram-positive and gram-negative bacteria is presented. The MIC values were obtained by the standard agar dilution-method test.

Series [2] concerns Klebsiella pneumoniae KAE. Briefly: standard agar dilution-method test (MIC). Format: cell-based.
Source text: as §1
A general note: In agar dilution the substance is mixed into plates at graded concentrations.

The subject of a further series is Escherichia coli EC14. As to the kind of experiment: standard agar dilution-method test (MIC). Format: cell-based. From the text: (§2) The MIC values were obtained by the standard agar dilution-method test.
Series [3] deals with Hemophilus influenzae C.L. As to the kind of experiment: standard agar dilution-method test (MIC). Format: cell-based.
Source text: as §2

Series [4] relates to Klebsiella pneumoniae X65. As to the kind of experiment: standard agar dilution-method test (MIC). Format: cell-based.
Source text: as §2

Series [5] deals with Streptococcus group D 2041. Briefly: standard agar dilution-method test (MIC). Format: cell-based.
Source text: as §2

Series [6] concerns Streptococcus pyogenes C203. As to the kind of experiment: standard agar dilution-method test (MIC). Format: cell-based.
Source text: as §2

The test system of series [7] is Staphylococcus epidermidis EPI2. Briefly: standard agar dilution-method test (MIC). Format: cell-based.
Source text: as §2

Series [8] relates to Staphylococcus aureus X1.1. As to the kind of experiment: standard agar dilution-method test (MIC). Format: cell-based.
Source text: as §2

The test system of series [9] is Staphylococcus epidermidis EPI1. Briefly: standard agar dilution-method test (MIC). Format: cell-based.
Source text: as §2

A further series relates to Hemophilus influenzae 76. Briefly: standard agar dilution-method test (MIC). Format: cell-based.
Source text: as §2

Series [10] has as its system Staphylococcus aureus X400. As to the kind of experiment: standard agar dilution-method test (MIC). Format: cell-based.
Source text: as §2

The subject of series [11] is Klebsiella pneumoniae X26. As to the kind of experiment: standard agar dilution-method test (MIC). Format: cell-based.
Source text: as §2

For series [12], the system named is Staphylococcus aureus S13E. As to the kind of experiment: standard agar dilution-method test (MIC). Format: cell-based.
Source text: as §2

The test system of series [13] is Staphylococcus aureus V41. Briefly: standard agar dilution-method test (MIC). Format: cell-based.
Source text: as §2

The test system of another series is Escherichia coli TEM. As to the kind of experiment: standard agar dilution-method test (MIC). Format: cell-based.
Source text: as §2

Series [14] has as its system Streptococcus pneumoniae Park I. Briefly: standard agar dilution-method test (MIC). Format: cell-based.
Source text: as §2

The test system of the next series is Escherichia coli N10. Briefly: standard agar dilution-method test (MIC). Format: cell-based.
Source text: as §2

The nature of series [15]: in vivo. Conditions: mouse, po, 20 mg/kg.
A short description of series [16]: in vivo. The conditions noted are these: rat, po, 20 mg/kg.
For series [17] the following is noted: mouse, in vivo.
The conditions of series [18]: rat, in vivo.

“Para-nitrobenzyl 7-(R)-phenoxyacetamido-3-(but-2'-yn-4'-yloxy)-3-cephem-4-carboxylate [Example 6]”: the “Minimum Inhibitory Concentration” value in series [1] was found to be 128 µg/mL; in [2], 128 µg/mL; in the series with Escherichia coli EC14 it was 4 µg/mL; in series [3], 8 µg/mL; in series [4], 4 µg/mL; in series [5], 32 µg/mL. In addition, the “Minimum Inhibitory Concentration” value in [6] came out at 0.06 µg/mL; in series [7] it was 1 µg/mL; in series [8] it was 0.5 µg/mL; in series [9] it was 16 µg/mL; with Hemophilus influenzae 76, 4 µg/mL; in series [10], 64 µg/mL. Besides, the “Minimum Inhibitory Concentration” value in [11] was determined as 4 µg/mL; in [12], 64 µg/mL; in series [13] it was 64 µg/mL; in the series with Escherichia coli TEM it was 16 µg/mL; in [14] it was 0.25 µg/mL; in the series with Escherichia coli N10, 8 µg/mL.

With “Para-nitrobenzyl 7-(R)-phenoxyacetamido-3-(prop-1'-yn-3'-yloxy)-3-cephem-4-carboxylate [Example 1]”, the “Minimum Inhibitory Concentration” value in series [1] came to 128 µg/mL; in [2] it was 128 µg/mL; in the series on Escherichia coli EC14, 2 µg/mL; in [3], 4 µg/mL; in series [4] it was 4 µg/mL; in series [5] it was 128 µg/mL. Also, the “Minimum Inhibitory Concentration” value in series [6] turned out to be 0.25 µg/mL; in series [7], 2 µg/mL; in [8] it was 2 µg/mL; in series [9], 8 µg/mL; in the series on Hemophilus influenzae 76, 4 µg/mL; in series [10], 64 µg/mL. The “Minimum Inhibitory Concentration” value in series [11] worked out at 2 µg/mL; in [12] it was 32 µg/mL; in [13], 32 µg/mL; in the series on Escherichia coli TEM it was 8 µg/mL; in series [14] it was 1 µg/mL; in the series on Escherichia coli N10 it was 4 µg/mL.

Regarding “Para-nitrobenzyl 7-(R)-[(2'R)-2'-(N-(t-butylcarbamato))-2' -phenylacetamido]-3-(prop-1'-yn-3'-yloxy)-3-cephem-4-carboxylate [Example 3]”, the “Minimum Inhibitory Concentration” value in [1] was found to be 128 µg/mL; in [2] it was 128 µg/mL; in the series with Escherichia coli EC14 it was 64 µg/mL; in series [3], 128 µg/mL; in series [4], 128 µg/mL; in series [5] it was 128 µg/mL. Also, the “Minimum Inhibitory Concentration” value in [6] was 0.5 µg/mL; in series [7], 8 µg/mL; in [8], 8 µg/mL; in series [9], 128 µg/mL; in the series with Hemophilus influenzae 76 it was 128 µg/mL; in series [10] it was 128 µg/mL. The “Minimum Inhibitory Concentration” value was 64 µg/mL in series [11]; 128 µg/mL in series [12]; 128 µg/mL in [13]; 128 µg/mL with Escherichia coli TEM; 1 µg/mL in series [14]; 128 µg/mL in the series with Escherichia coli N10.

With `C#CCOC1=C(C(=O)O)N2C(=O)[C@@H](NC(=O)[C@H](N)c3ccccc3)[C@H]2SC1` [Test Compound 1, 7-(R)-[2'-(R)-2'-amino-2'-phenylacetamido]-3-(prop-1'-yn-3'-yloxy)-3-cephem-4-carboxylic acid zwitterion], in “in vivo [15]”, the concentration at 20 min is 23100 ng/mL, the concentration at 40 min was 12400 ng/mL, the concentration at 1 h came to 4000 ng/mL and the concentration at 2 h stood at 850 ng/mL. In the series “in vivo [16]”, this compound registered a concentration at 20 min of 3900 ng/mL, a concentration at 1 h of 15900 ng/mL, a concentration at 2 h of 19300 ng/mL and a concentration at 4 h of 14700 ng/mL. Moreover, in the series “in vivo [16]”, the concentration at 6 h came out at 12300 ng/mL and the concentration at 9 h is 8500 ng/mL. Also, the “oral absorption characteristics in mice” value in series [17] was “excellent oral absorption characteristics”. Besides, the “plasma levels in rats” value in series [18] was “high plasma levels”.

As to “benzhydryl 7-(R)-[(2'R)-2'-(N-(t-butylcarbamato))-2'-phenylacetamido]-3-(prop-1'-yn-3'-yloxy)-3-cephem-4-carboxylate [Example 2]”, the “Minimum Inhibitory Concentration” value in series [1] is 128 µg/mL; in series [2] it was 128 µg/mL; with Escherichia coli EC14, 4 µg/mL; in [3] it was 4 µg/mL; in [4], 4 µg/mL; in series [5], 64 µg/mL. In addition, the “Minimum Inhibitory Concentration” value in series [6] is 0.06 µg/mL; in [7], 2 µg/mL; in series [8] it was 2 µg/mL; in series [9], 32 µg/mL; in the series with Hemophilus influenzae 76 it was 8 µg/mL; in series [10], 128 µg/mL. For the same compound, the “Minimum Inhibitory Concentration” value in series [11] was 2 µg/mL; in series [12], 128 µg/mL; in series [13] it was 128 µg/mL; with Escherichia coli TEM, 16 µg/mL; in series [14], 0.25 µg/mL; in the series with Escherichia coli N10, 16 µg/mL.

Take “Benzhydryl 7-(R)-[(2'R)-2'-(N-(t-butylcarbamato))-2'-(para-hydroxyphenyl)acetamido]-3-(prop-1'-yn-3'-yloxy)-3-cephem-4-carboxylate [Example 4]”: the “Minimum Inhibitory Concentration” value amounted to 64 µg/mL in series [1]; 64 µg/mL in series [2]; 2 µg/mL in the series with Escherichia coli EC14; 8 µg/mL in [3]; 2 µg/mL in series [4]; 32 µg/mL in [5]. Besides, the “Minimum Inhibitory Concentration” value in series [6] amounted to 0.06 µg/mL; in [7] it was 1 µg/mL; in [9], 8 µg/mL; in the series with Hemophilus influenzae 76, 8 µg/mL; in [10], 64 µg/mL; in series [11], 2 µg/mL. Besides, the “Minimum Inhibitory Concentration” value in series [12] came to 16 µg/mL; in series [13] it was 8 µg/mL; in the series with Escherichia coli TEM, 8 µg/mL; in series [14], 0.5 µg/mL; in the series with Escherichia coli N10, 4 µg/mL.
